Patent US20260083851A1 (AVILAR THERAPEUTICS, INC., priority 2022, published 2026)
Read-outs that look alike come from different tables or passages of the source.

Target: T1, ASGP receptor (biotinylated ASGPR) (Homo sapiens, UniProt P07306)
T1 construct: biotin (biotinylated)
T1 sequence (P07306 1-291): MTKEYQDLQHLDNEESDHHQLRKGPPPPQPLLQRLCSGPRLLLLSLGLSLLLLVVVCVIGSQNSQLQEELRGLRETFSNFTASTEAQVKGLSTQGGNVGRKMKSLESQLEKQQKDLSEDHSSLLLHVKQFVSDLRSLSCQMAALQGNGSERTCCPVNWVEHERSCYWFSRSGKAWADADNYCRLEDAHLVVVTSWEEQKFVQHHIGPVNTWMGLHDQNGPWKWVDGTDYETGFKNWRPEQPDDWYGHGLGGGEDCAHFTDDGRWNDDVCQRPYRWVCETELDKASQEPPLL
Format: binding
Details: SPR, Biacore 8K, 25° C., read-out: ASGPR KD

Compound | Kd (Table 1D) [µM] | other results
O=C(OCc1ccccc1)N1C[C@H](Nc2cncc(C(F)(F)F)n2)[C@@H](O)[C@@H](O)C1 [A361] | < 10 | 
O[C@@H]1[C@@H](Nc2cncc(C(F)(F)F)n2)CNC[C@@H]1O [A362] | < 10 | 
CN1C[C@H](Nc2cncc(C(F)(F)F)n2)[C@@H](O)[C@@H](O)C1 [A363] | < 10 | 
CCN1C[C@H](O)[C@H](O)[C@@H](N(C)c2cncc(C(F)(F)F)n2)C1 [A366] | < 10 | 
CN1C[C@H](Nc2ccc(C(F)(F)F)cn2)[C@@H](O)[C@@H](O)C1 [A368] |  | Kd (Table 1D, numeric bound): > 30 µM
O=C(OCc1ccccc1)N1C[C@H](Nc2nccc(C(F)(F)F)n2)[C@@H](O)[C@@H](O)C1 [A369] | < 10 | 
O[C@@H]1[C@@H](Nc2nccc(C(F)(F)F)n2)CNC[C@@H]1O [A370] | 10 to 100 | 
O=C(OCc1ccccc1)N1CC(Nc2cn[nH]c2)[C@@H](O)[C@@H](O)C1 (stereo partly shown) [A371] |  | Kd (Table 1D, numeric bound): > 30 µM
CN1C[C@H](Nc2nccc(C(F)(F)F)n2)[C@@H](O)[C@@H](O)C1 [A372] | < 10 | 
O=C(OCc1ccccc1)N1C[C@H](Nc2ccc(C(F)(F)F)cn2)[C@@H](O)[C@@H](O)C1 [A374] |  | Kd (Table 1D, numeric bound): > 30 µM
O=C(c1ccc(-c2ccccc2)cc1)N1C[C@H](Nc2cncc(C(F)(F)F)n2)[C@@H](O)[C@@H](O)C1 [A376] | < 10 | 
O[C@@H]1[C@@H](Nc2cncc(C(F)(F)F)n2)CN(c2ccc(C(F)(F)F)cn2)C[C@@H]1O [A377] | < 10 | 
O=C(c1ccc(C(F)(F)F)cn1)N1C[C@H](Nc2cncc(C(F)(F)F)n2)[C@@H](O)[C@@H](O)C1 [A378] | < 10 | 
O=C(c1ccc(C(F)(F)F)cc1F)N1C[C@H](Nc2cncc(C(F)(F)F)n2)[C@@H](O)[C@@H](O)C1 [A379] | < 10 | 
O=C(OCc1ccccc1)N1C[C@H](Nc2nc(Cl)nn3cccc23)[C@@H](O)[C@@H](O)C1 [A380] | < 10 | 
O=C(Oc1ccc(-c2ccccc2)cc1)N1C[C@H](Nc2cncc(C(F)(F)F)n2)[C@@H](O)[C@@H](O)C1 [A384] | < 10 | 
O=C(OCc1ccccc1)N1C[C@H](Oc2cncc(C(F)(F)F)n2)[C@@H](O)[C@@H](O)C1 [A385] | < 10 | 
O=C(O)c1ccc(-c2ccc(CN3C[C@H](Nc4cncc(C(F)(F)F)n4)[C@@H](O)[C@@H](O)C3)cc2)cc1 [A387] | < 10 | 
O[C@@H]1[C@@H](Oc2cccc(C(F)(F)F)n2)CNC[C@@H]1O [A388] | < 10 | 
O[C@@H]1[C@@H](Oc2cncc(C(F)(F)F)n2)CNC[C@@H]1O [A389] | < 10 | 
COC(=O)c1ccc(-c2ccc(C(=O)N3C[C@H](Nc4cncc(C(F)(F)F)n4)[C@@H](O)[C@@H](O)C3)cc2)cc1 [A391] | < 10 | 
O=C(O)c1ccc(C(=O)N2C[C@H](Nc3cncc(C(F)(F)F)n3)[C@@H](O)[C@@H](O)C2)nc1 [A392] | < 10 | 
O[C@@H]1[C@@H](Nc2cncc(C(F)(F)F)n2)CN(c2cccnn2)C[C@@H]1O [A395] | < 10 | 
O[C@@H]1[C@@H](Nc2cccc(C(F)(F)F)n2)CN(C2CCNCC2)C[C@@H]1O [A396] | < 10 | 
CC(C)(C)OC(=O)N1CCC(N2C[C@H](Nc3cccc(C(F)(F)F)n3)[C@@H](O)[C@@H](O)C2)CC1 [A397] | < 10 | 
O[C@@H]1[C@@H](Nc2ncnn3cccc23)CNC[C@@H]1O [A400] |  | Kd (Table 1D, numeric bound): > 30 µM
O=C(CCCCC(=O)N1C[C@H](Nc2cncc(C(F)(F)F)n2)[C@@H](O)[C@@H](O)C1)OCc1ccccc1 [A404] | < 10 | 

Compound | Kd (Table 1D) [µM] | other results
CC(=O)N[C@H]1CN(C(=O)CCCCC(=O)OCc2ccccc2)C[C@H](O)[C@@H]1O [A407] | 10 to 100 | 
O=C(O)CCCCC(=O)N1C[C@H](Nc2cncc(C(F)(F)F)n2)[C@@H](O)[C@@H](O)C1 [A408] | < 10 | 
O=C(OCc1ccccc1)N1CCC(c2cnc(OC[C@H]3OC[C@H](Nc4cncc(C(F)(F)F)n4)[C@@H](O)[C@H]3O)cn2)CC1 [A409] | < 10 | 
O=C(OCc1ccccc1)N1CC(c2ccc(OC[C@H]3OC[C@H](Nc4cncc(C(F)(F)F)n4)[C@@H](O)[C@H]3O)nn2)C1 [A410] | < 10 | 
O[C@@H]1[C@H](O)[C@@H](Nc2cncc(C(F)(F)F)n2)CO[C@@H]1COc1cnc(C2CCNCC2)cn1 [A415] | < 10 | 
O[C@@H]1[C@H](O)[C@@H](Nc2cncc(C(F)(F)F)n2)CO[C@@H]1COc1ccc(C2CCNCC2)nn1 [A416] | < 10 | 
O[C@@H]1[C@H](O)[C@@H](Oc2cncc(C(F)(F)F)n2)CO[C@@H]1COc1ncccn1 [A417] | < 10 | 
Nc1ccc(OC[C@H]2OC[C@H](Nc3cncc(C(F)(F)F)n3)[C@@H](O)[C@H]2O)nn1 [A418] | < 10 | 
O[C@@H]1[C@H](O)[C@@H](Nc2cncc(C(F)(F)F)n2)CO[C@@H]1COc1ccc(C2CNC2)nn1 [A420] | < 10 | 
O[C@@H]1[C@H](O)[C@@H](Oc2cncc(C(F)(F)F)n2)CO[C@@H]1COc1cnccn1 [A421] | < 10 | 
O=C(c1ccccc1)N1C[C@H](Nc2cncc(C(F)(F)F)n2)[C@@H](O)[C@@H](O)C1 [A422] | < 10 | 
C[C@H]1O[C@H](C(=O)Nc2cn[nH]c2)[C@H](Nc2cccc(C(F)(F)F)n2)[C@@H](O)[C@H]1O [A424] | < 10 | 
C[C@H]1O[C@H](C(N)=O)[C@H](Oc2cccc(C(F)(F)F)n2)[C@@H](O)[C@H]1O [A431] |  | Kd (Table 1E): < 10 µM
C[C@H]1O[C@H](C#N)[C@H](Oc2cccc(C(F)(F)F)n2)[C@@H](O)[C@H]1O [A432] |  | Kd (Table 1E): < 10 µM
C[C@H]1O[C@H](C(C)(C)O)[C@H](Oc2cccc(C(F)(F)F)n2)[C@@H](O)[C@H]1O [A433] |  | Kd (Table 1E): < 10 µM
C[C@H]1O[C@H](COc2cnccn2)[C@H](Oc2cncc(C(F)(F)F)n2)[C@@H](O)[C@H]1O [A434] |  | Kd (Table 1E): < 10 µM
C[C@H]1O[C@H](C2=CC3C(C2=O)[C@@H]2CC[C@H]3C2)[C@H](Oc2cccc(C(F)(F)F)n2)[C@@H](O)[C@H]1O (stereo partly shown) [A435A] |  | Kd (Table 1E): < 10 µM
C[C@H]1O[C@H](C2=CC3C(C2=O)[C@H]2CC[C@@H]3C2)[C@H](Oc2cccc(C(F)(F)F)n2)[C@@H](O)[C@H]1O (stereo partly shown) [A435B] |  | Kd (Table 1E): < 10 µM
C[C@H]1O[C@H](C2=CC3C4CCC(C4)C3C2=O)[C@H](Oc2cccc(C(F)(F)F)n2)[C@@H](O)[C@H]1O (stereo partly shown) [A435] |  | Kd (Table 1E): < 10 µM
C[C@H]1O[C@H](CO)[C@H](Oc2cncc(C(F)(F)F)n2)[C@@H](O)[C@H]1O [A436] |  | Kd (Table 1E, numeric bound): > 30 µM
C[C@H]1O[C@H](CO)[C@H](Oc2nccc(C(F)(F)F)n2)[C@@H](O)[C@H]1O [A437] |  | Kd (Table 1E): 10 to 100 µM
C[C@H]1O[C@H](CO)[C@H](Oc2cccc(C(F)(F)F)n2)[C@@H](O)[C@H]1O [A438] |  | Kd (Table 1E): < 10 µM
C[C@H]1O[C@H](CCc2ccncc2)[C@H](Oc2cccc(C(F)(F)F)n2)[C@@H](O)[C@H]1O [A439] |  | Kd (Table 1E): < 10 µM
C[C@H]1O[C@H](C(=O)NCCOCCOCC(=O)O)[C@H](Oc2cccc(C(F)(F)F)n2)[C@@H](O)[C@H]1O [A440] |  | Kd (Table 1E, numeric bound): > 30 µM
C[C@H]1O[C@H](COc2cccnn2)[C@H](Oc2cccc(C(F)(F)F)n2)[C@@H](O)[C@H]1O [A441] |  | Kd (Table 1E): < 10 µM
C#Cc1ccc(OC[C@H]2O[C@H](C)[C@H](O)[C@H](O)[C@H]2Oc2cccc(C(F)(F)F)n2)nn1 [A442] |  | Kd (Table 1E): < 10 µM
C[C@H]1O[C@H](COc2cnc(C(=O)O)cn2)[C@H](Oc2cccc(C(F)(F)F)n2)[C@@H](O)[C@H]1O [A443] |  | Kd (Table 1E): < 10 µM

Now from value to molecule, other results behind:

Kd (Table 1D) [µM] | Compound | other results
< 10 | O=C(c1ccc(Cc2ccccc2)cc1)N1C[C@H](Nc2cncc(C(F)(F)F)n2)[C@@H](O)[C@@H](O)C1 [A364] | 
< 10 | CN(c1cncc(C(F)(F)F)n1)[C@H]1CNC[C@H](O)[C@@H]1O [A365] | 
< 10 | O[C@@H]1[C@@H](Nc2cncc(C(F)(F)F)n2)CN(CC(F)(F)F)C[C@@H]1O [A367] | 
< 10 | O[C@@H]1[C@@H](Nc2cncc(C(F)(F)F)n2)CN(Cc2ccccc2)C[C@@H]1O [A373] | 
< 10 | O=C(OCc1ccccc1)N1C[C@H](Nc2ccnc(C(F)(F)F)n2)[C@@H](O)[C@@H](O)C1 [A375] | 
< 10 | O=C(O)COCCOCC(=O)C1C[C@H](Nc2cncc(C(F)(F)F)n2)[C@@H](O)[C@@H](O)C1 (stereo partly shown) [A381] | 
10 to 100 | O[C@@H]1[C@@H](Nc2nc(Cl)nn3cccc23)CNC[C@@H]1O [A382] | 
< 10 | O=C(O)c1ccc(-c2ccc(C(=O)N3C[C@H](Nc4cncc(C(F)(F)F)n4)[C@@H](O)[C@@H](O)C3)cc2)cc1 [A383] | 
< 10 | O=C(OCc1ccccc1)N1C[C@H](Oc2cccc(C(F)(F)F)n2)[C@@H](O)[C@@H](O)C1 [A386] | 
< 10 | O=C(OCc1ccccc1)N1C[C@H](Nc2cccc(C(F)(F)F)n2)[C@@H](O)[C@@H](O)C1 [A390] | 
< 10 | O[C@@H]1[C@@H](Nc2cncc(C(F)(F)F)n2)CN(c2ccccc2)C[C@@H]1O [A393] | 
< 10 | OCC1CCN(c2ccc(N3C[C@H](Nc4cncc(C(F)(F)F)n4)[C@@H](O)[C@@H](O)C3)nn2)CC1 [A394] | 
< 10 | O=C(O)C1CCN(c2ccc(N3C[C@H](Nc4cncc(C(F)(F)F)n4)[C@@H](O)[C@@H](O)C3)nc2)CC1 [A401] | 
10 to 100 | C#CCOc1nc(N[C@H]2CO[C@H](CO)[C@H](O)[C@@H]2O)cc(C(F)(F)F)n1 [A402] | 
10 to 100 | CN1C[C@H](Oc2cccc(C(F)(F)F)n2)[C@@H](O)[C@@H](O)C1 [A403] | 
< 10 | O=C(OCc1ccccc1)N1CCC(N2C[C@H](Nc3cccc(C(F)(F)F)n3)[C@@H](O)[C@@H](O)C2)C(F)(F)C1 (stereo partly shown) [A412] | 
< 10 | O=C(c1ccccn1)N1C[C@H](Nc2cncc(C(F)(F)F)n2)[C@@H](O)[C@@H](O)C1 [A423] | 
< 10 | O[C@@H]1[C@@H](Oc2cccc(C(F)(F)F)n2)CN(c2cnccn2)C[C@@H]1O [A425] | 
< 10 | O[C@@H]1[C@@H](Oc2cccc(C(F)(F)F)n2)CN(c2ccc(C(F)(F)F)cn2)C[C@@H]1O [A427] | 
